Test results taken from patent US20030018025A1, “Certain 4-aminomethyl-2-substituted imidazole derivatives and 2-aminomethyl-4-substituted imidazole derivatives: new classes of dopamine receptor subtype specific ligands” (Neurogen Corporation, Corporation of the State of Delaware, priority 1995, published 2003).
“Also recorded” adds a separate entry of the source. Where a name gives a salt, the structure may show the parent alone.

Legend:
[1] = biological target: T1, dopamine D4 receptors in human hippocampus (Homo sapiens, UniProt P21917); experiment: Binding to D4 receptors in human hippocampus
T1 construct: from tissue; host or cells: human hippocampus
T1 sequence (P21917 1-419): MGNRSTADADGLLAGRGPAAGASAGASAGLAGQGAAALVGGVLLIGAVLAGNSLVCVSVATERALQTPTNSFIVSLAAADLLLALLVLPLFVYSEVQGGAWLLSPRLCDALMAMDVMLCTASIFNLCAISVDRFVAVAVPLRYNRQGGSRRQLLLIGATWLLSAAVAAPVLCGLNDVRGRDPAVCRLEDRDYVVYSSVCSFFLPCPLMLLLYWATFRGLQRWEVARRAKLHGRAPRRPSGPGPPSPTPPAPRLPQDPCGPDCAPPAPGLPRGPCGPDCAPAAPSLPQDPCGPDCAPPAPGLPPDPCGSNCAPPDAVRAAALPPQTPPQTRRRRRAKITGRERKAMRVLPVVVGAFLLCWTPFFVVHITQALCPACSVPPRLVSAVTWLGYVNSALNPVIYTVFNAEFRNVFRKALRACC

[2] = biological target: T2, human dopamine D4 receptor subtype (Homo sapiens, UniProt P21917); experiment: D4 receptor binding, displacement of [3H]YM-09151-2; conditions: Example XXXIX table
T2 construct: expressed in transfected cells
T2 sequence (P21917 1-419): T1 sequence (P21917 1-419)
Method: Assay for D4 Receptor Binding Activity
Clonal cell lines expressing the human dopamine D4 receptor subtype were harvested in PBS and the cells centrifuged and the pellets stored at −80° C. until used in the binding assay. The pellets were resuspended and the cells lysed at 4° C. in 50 mM Tris pH 7.4 buffer containing 120 mM NaCl, 1 mM EDTA and 5 mM MgCl2. The homogenate is centrifuged at 48000× g for 10 minutes at 4° C. The resulting pellet is resuspended in fresh buffer and centrifuged again. After resuspension of the pellet in fresh buffer at […] aliquot is removed for protein determination. The remaining homogenate is centrifuged as above, the supernatant removed and the pellet stored at 4° C. until needed at which time it is resuspended to a final concentration of […] with 50 mM Tris buffer (pH 7.4) and 120 mM NaCl just prior to use. Incubations were carried out for 60 minutes at 25° C. in the presence of 0.1 nM [^3H] YM-09151-2. The incubation was terminated by rapid filtration through Whatman GF/C filters and rinsed with 2×4 ml washes of chilled 50 mM Tris (pH 7.4) and 120 mM NaCl. Non-specific binding was determined with […] spiperone and radioactivity determined by coiunting in an LKB beta counter. Binding parameters were determined by non-linear least squares regression analysis, from which the inhibition constant (Ki) could be calculated for each test compound. The binding characteristics of some examples of this patent are shown in Table 2 for the dopamine D4 binding assay.

[3] = biological target: T3, Dopamine Receptor D3 (Homo sapiens, UniProt P35462); experiment: D3 receptor binding activity (Example XXXIX)
T3 construct: expressed in transfected cells; host or cells: BHK 293 cells (so in the source)
Method: (§1) Striatial tissue is dissected from adult male Sprague Dawley rats or BHK 293 cells are harvested containing recombinantly produced D2 or D3 receptors. The sample is homogenized in 100 volumes (w/vol) of 0.05 M Tris HCl buffer at 4° C. and pH 7.4. The sample is then centrifuged at 30,000× g and resuspended and rehomogenized. The sample is then centrifuged as described and the final tissue sample is frozen until use. The tissue is resuspended 1:20 (wt/vol) in 0.05 M Tris HCl buffer containing 100 mM NaCl.
(§2) Incubations are carried out at […] and contain 0.5 ml of tissue sample, 0.5 nM ^3H-raclopride and the compound of interest in a total incubation volume of 1.0 ml.
(§3) The following compounds were assayed for D2, D3, and D4 receptor binding activity using the assays described above.

[4] = tested on: male Sprague Dawley rats; experiment: Step-down passive avoidance task; type: in vivo, rat
Method: Method Non-naive male Sprague Dawley rats (SASCO St Louis) weighing between […], were housed in groups of three in a temperature and humidity controlled vivarium having a 12 hour light/dark cycle. Animals had ad lib access to food and water.
Clozapine was dissolved in 50% PEG and administered in a dose range of from 0.25 to 2 mg/kg. Both drugs were administered intravenously 5 minutes prior to training in both learning tasks
A step-down passive avoidance platform 4 (cm)×7(cm) was placed in the center of an electrified gris floor, which was contained within a large (45×45×50 cm) white translucent plexiglas enclosure having a closable lid. The bars of the grip were spaced 1.5 cm apart and were wired to a BRS-LVE shock generator/scrambler which was set to deliver a 2 mA 6 second shock. Four passive avoidance boxes were automated by customer software (Labview) and commercial interface modules (National Instruments) connected to a computer The timing and delivery of the shock as well as the latency to steo down and the number of trials taken to reach criterion during training was under the control of the computer. […]
Testing was conduced approximately 24 hours after training, Drug-free animals were placed on the platform in the box in which they were trained and the latency to step down onto the unshocked floor was recorded for one trial. […]

[5] = biological target: T4, dopamine D4 receptors in rat hippocampus (Rattus norvegicus, UniProt P30729); experiment: Binding to D4 receptors in rat hippocampus
T4 construct: from tissue; host or cells: rat hippocampus
T4 sequence (P30729 1-387): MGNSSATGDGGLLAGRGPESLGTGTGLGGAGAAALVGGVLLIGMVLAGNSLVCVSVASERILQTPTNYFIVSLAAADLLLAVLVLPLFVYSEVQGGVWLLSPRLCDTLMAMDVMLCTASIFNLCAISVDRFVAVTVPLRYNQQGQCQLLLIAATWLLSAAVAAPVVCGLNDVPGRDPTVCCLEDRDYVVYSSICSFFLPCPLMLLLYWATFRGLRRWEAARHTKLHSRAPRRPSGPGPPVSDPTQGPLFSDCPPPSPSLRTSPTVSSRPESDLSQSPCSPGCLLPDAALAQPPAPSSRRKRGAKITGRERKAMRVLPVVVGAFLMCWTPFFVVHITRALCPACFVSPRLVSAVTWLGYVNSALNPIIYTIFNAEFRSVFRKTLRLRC

[6] = biological target: Dopamine Receptor D2 (Homo sapiens, UniProt P14416); experiment: D2 receptor binding activity (Example XXXIX)
Method: as §1, §2, §3

Sequence of Dopamine Receptor D2 (P14416 whole entry): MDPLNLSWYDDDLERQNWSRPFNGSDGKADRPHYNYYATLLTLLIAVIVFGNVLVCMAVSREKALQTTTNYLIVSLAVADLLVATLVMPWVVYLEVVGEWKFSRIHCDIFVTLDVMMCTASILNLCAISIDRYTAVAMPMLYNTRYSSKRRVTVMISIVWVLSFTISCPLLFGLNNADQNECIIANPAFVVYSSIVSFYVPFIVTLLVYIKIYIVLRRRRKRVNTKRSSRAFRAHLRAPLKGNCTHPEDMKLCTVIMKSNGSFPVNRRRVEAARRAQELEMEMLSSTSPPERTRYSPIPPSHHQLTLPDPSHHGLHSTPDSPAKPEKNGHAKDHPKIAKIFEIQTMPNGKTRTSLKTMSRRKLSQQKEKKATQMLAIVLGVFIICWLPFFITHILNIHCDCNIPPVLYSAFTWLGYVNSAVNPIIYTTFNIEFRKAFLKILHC
T3 sequence (P35462 whole entry): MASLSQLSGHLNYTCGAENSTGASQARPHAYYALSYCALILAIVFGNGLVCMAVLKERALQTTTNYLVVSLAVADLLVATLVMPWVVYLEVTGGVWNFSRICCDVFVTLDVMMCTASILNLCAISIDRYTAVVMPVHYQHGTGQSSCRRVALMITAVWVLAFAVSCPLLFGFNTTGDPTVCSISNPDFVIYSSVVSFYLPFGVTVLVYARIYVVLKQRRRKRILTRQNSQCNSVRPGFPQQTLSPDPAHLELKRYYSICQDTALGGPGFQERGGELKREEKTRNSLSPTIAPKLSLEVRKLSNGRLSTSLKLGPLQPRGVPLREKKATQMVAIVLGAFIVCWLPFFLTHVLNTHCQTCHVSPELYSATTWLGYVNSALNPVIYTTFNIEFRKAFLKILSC

c1ccc(-c2ncc(CN3CCN(c4ncccn4)CC3)[nH]2)cc1 [Compound 23, 2-Phenyl-4(5)-[(4-(2-pyrimidinyl)-piperazin-1-yl)-methyl]-imidazole dihydrochloride]
antagonist binding to D4 receptors in hippocampus [1]: antagonists binding to dopamine D4 receptors | Ki [2]: 0.0027 µM | Ki [3]: 8.2 µM | passive avoidance retention (time on platform at retest) vs vehicle ([4]; 0.25 mg/kg i.v. 5 minutes prior to training, retest about 24 hours later, dihydrochloride, 0.25 mg/kg): significant improvement in memory; also recorded: significantly longer time | passive avoidance acquisition vs vehicle ([4]; 0.03-1.0 mg/kg i.v. 5 minutes prior to training): no significant differences for acquisition | antagonist binding to D4 receptors in hippocampus [5]: antagonists binding to dopamine D4 receptors

c1ccc(-c2ncc(CN3CCN(c4ccccc4)CC3)[nH]2)cc1 [Compound 45, 2-Phenyl-4(5)-[(4-phenyl-piperazin-1-yl)methyl]imidazole]
antagonist binding to D4 receptors in hippocampus [1]: antagonists binding to dopamine D4 receptors | Ki [6]: 0.239 µM | Ki [2]: 0.005 µM | Ki [3]: 0.169 µM | antagonist binding to D4 receptors in hippocampus [5]: antagonists binding to dopamine D4 receptors

Ic1nc(-c2ccccc2)[nH]c1CN1CCN(c2ncccn2)CC1 (as salt: hydroiodid) [Compound 90, 2-phenyl-5-iodo-4(5)-[(4-(2-pyrimidinyl)piperazin-1-yl)methyl]-imidazole hydroiodide salt]
melting point: 196 to 199 °C

c1ccc(-c2nc(CN3CCN(c4ccccn4)CC3)c[nH]2)cc1 [Compound 24, 2-Phenyl-4(5)-[(4-(2-pyridyl)-piperazin-1-yl)-methyl]-imidazole dihydrochloride]
antagonist binding to D4 receptors in hippocampus [1]: antagonists binding to dopamine D4 receptors | Ki [6]: 1.03 µM | Ki [2]: 0.00085 µM | antagonist binding to D4 receptors in hippocampus [5]: antagonists binding to dopamine D4 receptors

COc1ccccc1N1CCN(Cc2cnc(-c3ccccc3)[nH]2)CC1 [Compound 19, 2-phenyl-4-(5)-[(4-(2-methoxyphenyl)-piperazin-1-yl)-methyl]imidazole]
melting point: 105 to 107 °C

COc1ccc(Cl)cc1-c1ncc(CN2CCN(c3ccccc3OC)CC2)[nH]1 (as salt: hydrochloride) [Compound 43, 2-(5-Chloro-2-methoxyphenyl)-4(5)-[(4-(2-methoxyphenyl)-piperazin-1-yl)-methyl]-imidazole dihydrochloride]
melting point: 138 to 143 °C

O=C(CCc1cnc(-c2ccccc2)[nH]1)N1CCN(c2ncccn2)CC1 [Compound 122, 2-phenyl-4(5)-[(4-(2-pyrimidinyl)-piperazin-1-yl)-propan-1-oyl]-imidazole]
melting point: 143 to 148 °C

COc1ccc(-c2nc(CN3CCC(c4ccccc4)CC3)c[nH]2)cc1 (as salt: hydrochloride) [Compound 47, 2-(4-Methoxyphenyl) -4(5)[(4-phenyl-piperidin-1-yl)-methyl]-imidazole dihydrochloride]
melting point: 196 to 199 °C

c1ccc(-c2nc(-c3ccccc3)c(CN3CCN(c4ncccn4)CC3)[nH]2)cc1 [Compound 132, 2,5-diphenyl-4(5)-[(4-(2-pyrimidinyl)piperazin-1-yl)methyl]-imidazole]
melting point: 221 to 225 °C

c1ccc(-c2ncc(CCCN3CCN(c4ncccn4)CC3)[nH]2)cc1 [Compound 125, 2-phenyl-4(5)-[(4-(2-pyrimidinyl)-piperazin-1-yl)-propan-1-yl]-imidazole]
melting point: 133 to 135 °C

COc1ccccc1N1CCN(Cc2cnc(-c3cccc(OC)c3OC)[nH]2)CC1 (as salt: hydrochloride) [Compound 21, 2-(2,3-Dimethoxyphenyl)-4(5)-[(4-(2-methoxyphenyl)-piperazin-1-yl)-methyl]-imidazole dihydrochloride]
melting point: 217 to 218 °C

COc1cccc(-c2ncc(CN3CCC(c4ccccc4)CC3)[nH]2)c1 (as salt: hydrochloride) [Compound 50, 2-(3-Methoxyphenyl)-4(5)[(4-phenyl-piperidin-1-yl)-methyl]-imidazole dihydrochloride]
melting point: 114 to 117 °C

CC(c1cnc(-c2ccccc2)[nH]1)N1CCC(Cc2ccccc2)CC1 (stereo not drawn) (as salt: hydrochloride) [Compound 91, 2-phenyl-4(5)-[1-((4-benzyl-piperidin-1-yl)-ethan-1-yl)]imidazole dihydrochloride salt]
melting point: 169 to 171 °C

COc1ccccc1N1CCN(Cc2cnc(-c3ccc(F)cc3)[nH]2)CC1 [Compound 20, 2-(4-Fluorophenyl)-4(5)-[(4-(2-methoxyphenyl)-piperazin-1-yl)-methyl]-imidazole]
melting point: 95 to 97 °C

Fc1ccccc1-c1ncc(CN2CCC(c3ccccc3)CC2)[nH]1 (as salt: maleate) [Compound 52, 2-(2-Fluorophenyl)-4(5)[(4-phenyl-piperidin-1-yl)-methyl]-imidazole dimaleate]
melting point: 142 to 144 °C

C[C@@H]1CN(c2ncccn2)C[C@H](C)N1Cc1cnc(-c2ccccc2)[nH]1 [Compound 140, 2-phenyl-4(5)-[(4-(2-pyrimidinyl)-cis-2,6-dimethylpiperazin-1-yl)-methyl]-imidazole]
melting point: 130 to 135 °C

c1cnc(N2CCN(Cc3cnc(C4CCCCC4)[nH]3)CC2)nc1 [Compound 128, 2-cyclohexyl-4(5)-[(4-(2-pyrimidinyl)-piperizin-1-yl)-methyl]-imidazole]
melting point: 210 to 213 °C

c1ccc(CC2CCN(Cc3ncc(-c4ccccc4)[nH]3)CC2)cc1 (as salt: fumarate) [Compound 77, 4-phenyl-2(5)-[(4-benzylpiperidin-1-yl)-methyl]imidazole]
melting point: 155 to 157 °C
